What is called IC50 is the midpoint of a concentration-inhibition curve. Read a low IC50 as inhibition by little substance.

The values that follow come from article PMC10945555, “Improving Activity of New Arylurea Agents against Multidrug-Resistant and Biofilm-Producing Staphylococcus epidermidis” (ACS Medicinal Chemistry Letters, 2024).

For experiment [1], the system named is Staphylococcus epidermidis ATCC 35984. Put plainly: MIC, broth microdilution, MDR/BPSE reference strain. The class given is cell-based. Conditions: for MIC: Staphylococcus epidermidis, ATCC35984, read-out: MIC MDR/BPSE, Staphylococcus epidermidis ATCC 35984. The source says:
(§1) These strains included susceptible, multidrug-resistant, and biofilm-producing strains of S. epidermidis and S. aureus (MSSE, MDR/BPSE, and MDR/BPSA, respectively). The cornerstone antibiotic linezolid served as a positive control (Table 1). The impact of structural modifications at the aryloxy fragment and the aromatic moiety bound to the propyl linker on the inhibitory activity was initially investigated. […] Further optimization focused on evaluating the impact of the type of substituent and its position on the arylsulfonamide fragment’s activity.
(§2) 2 Biological assay protocols
(§3) Microbiological tests were carried out under aseptic conditions in a laminar chamber of the 2nd […]
(§4) (BioTectum 1.2, Alchem Poland). The assessment of antimicrobial activity was carried out for final compounds in the form of free bases, soluble in DMSO (Merck, Germany), at the initial […]
(§5) concentration of 1 mg/mL. […]
(§6) were provided by Cayman Chemical, USA.
(§7) The activity of all newly synthesized compounds was tested in vitro on a panel of selected reference strains from the American Type Culture Collection (ATCC) of Gram-positive […]
(§8) 2.2 Effect of evaluated compounds on planktonic cells
(§9) The susceptibility of three reference bacterial strains (Staphylococcus epidermidis ATCC […]
(§10) Table S1) and 81 clinical MDR S. epidermidis (Table S2) to the tested compounds was assessed by determining the MIC value (Minimal Inhibitory Concentration) by microdilution in a liquid medium in 96-well flat-bottom cell culture plates (Nest Biotechnology Scientific, USA). The antibacterial properties of the compo unds were tested in the concentration range from 50 µg/mL to 0.1 µg/mL by making a series of double dilutions of the compound in liquid Mueller -Hinton II Broth Cation Adjusted (MHB II, BBL TM, USA) according to the European Committee on […]
(§11) Antimicrobial Susceptibility Testing guidelines (EUCAST).2,3 The determinations were performed twice. The MIC50 and MIC90 values were determined for each of the tested
A general note: Dilution methods test growth across graded concentrations, often in twofold steps.

Experiment [2] deals with Staphylococcus aureus ATCC BAA-976. Put plainly: MIC, broth microdilution, MDR/BPSA reference strain. The class given is cell-based.
Description: as §1, §2, §3, §4, §5, §6, §7, §8, §9, §10, §11

Experiment [3] relates to Staphylococcus epidermidis ATCC 12228. As to the kind of experiment: MIC, broth microdilution, MSSE reference strain. The class given is cell-based.
Description: as §1, §2, §3, §4, §5, §6, §7, §8, §9, §10, §11

Experiment [4] deals with Pseudomonas aeruginosa ATCC 27853. Put plainly: MIC, Gram-negative reference strain. In kind it is cell-based. Conditions: Pseudomonas aeruginosa, ATCC27853, read-out: MIC P. aeruginosa. As for the experimental part:
as §2, §3, §4, §5, §6, §7, §8, §9, §10, §11

Experiment [5] relates to Acinetobacter baumannii ATCC 19606. As to the kind of experiment: MIC, Gram-negative reference strain. The class given is cell-based. As to conditions: Acinetobacter baumannii, ATCC19606. The procedure:
as §2, §3, §4, §5, §6, §7, §8, §9, §10, §11

For experiment [6], the system named is Escherichia coli ATCC 25922. Put plainly: MIC, Gram-negative reference strain. The class given is cell-based. As to conditions: Escherichia coli, ATCC25922. As for the experimental part:
as §2, §3, §4, §5, §6, §7, §8, §9, §10, §11

In experiment [7] the test system is Gram-negative bacteria. As to the kind of experiment: MIC, tested Gram-negative bacteria (hit screening). In kind it is cell-based. From the text: (§12) Despite numerous efforts to ensure sterility and encourage the prudent use of currently available antibiotics, morbidity rates persist at high levels. These findings underscore the pressing need for the development of a novel class of potential antimicrobial agents targeting multidrug-resistant and biofilm-forming S. epidermidis. […] Herein we present the discovery of new aryloxy[1-(thien-2-yl)propyl]piperidines with improved antibacterial activity compared to compound I, evaluated against a spectrum of clinical S. epidermidis isolates (81 strains), including multidrug-resistant and biofilm-forming strains. We also determined their bacteriostatic/bactericidal properties and conducted a real-time analysis of bacterial growth. Finally, we evaluated the ability of the most promising compound, 25, in terms of its activity and safety over mammalian cell lines, to disrupt the staphylococcal cell membranes of clinical S. epidermidis.

Experiment [8] relates to reference susceptible and multidrug-resistant S. epidermidis and S. aureus strains. Put plainly: MIC, reference S. epidermidis and S. aureus strains (hit screening). The class given is cell-based.
Description: as §12

In experiment [9] the test system is BJ cells. Put plainly: Cytotoxicity, MTT assay, skin fibroblasts. In kind it is cell-based, human. Conditions: Homo sapiens, MTT, 24 h, n = 3. As for the experimental part:
(§13) The following cell models were used in the research: rat cardiomyocytes (H9c2 line) and human skin fibroblasts (BJ line). All cell lines used in the work are commercially available and were purchased from ATCC banks (the American Type Culture Collection, Manassas, VI, USA). Cell cultures were carried out in an incubator under standard conditions (37°C, 5% CO 2).
(§14) Culture media (Dulbecco's Modified Eagle's Medium -DMEM (H9c2) and Eagle's Minimum Essential Medium-EMEM (BJ) were supplemented with 10% bovine serum and a 1% mixture of penicillin and streptomycin antibiotics. […]
(§15) doxorubicin (a cytotoxic drug) were used as reference and positive control, respectively. […]
(§16) solution (5 mg/mL) was transferred into culture medium of incubated cells. After 3 h, once dark crystals of formazan were produced in cells, medium was aspirated and 100 μ L of DMSO was added to dissolve formazan. Absorbance of DMSO solution was read on a multiwell plate reader (Spectra Max iD3, Molecular Devices) at 570 nm. In order to determine viability, absorbance of experimental wells was divided by absorbance of contro l well (not treated) and multiplied by 100 (%). Three separate experiments were performed. IC 50 was calculated using non-linear regression method in OriginPro software. […]

Experiment [10] concerns H9c2 cells. As to the kind of experiment: Cytotoxicity, MTT assay, cardiomyocytes. In kind it is cell-based. As to conditions: Rattus norvegicus, 24 h, n = 3. The procedure: as §13, §14, §15
as §16, with “incubated with studied compound in appropriate concentration for next 24 h. Then MTT solution (5” for “solution (5”
Background: Formazan colour is commonly taken as a measure of viable cells.

The mark [11] stands for this setting: Staphylococcus aureus, ATCCBAA976, read-out: MIC MDR/BPSA.
Where [12] appears, read: ATCCBAA976, Staphylococcus aureus ATCC BAA-976, read-out: MIC MDR/BPSA.
Setting [13] is: ATCC12228, Staphylococcus epidermidis ATCC 12228, read-out: MIC MSSE.

Structures are written as SMILES. ≈ marks a conversion by molar mass, not a printed value. Read-outs that look alike come from different tables or passages of the source.

Take `O=S(=O)(NC1CCN(CCC(Oc2cccc(C(F)(F)F)c2)c2cccs2)CC1)c1cccc(Cl)c1` (stereo not shown) [Compound 13]: the MIC is 3.12 µg/mL (≈ 5.59 µM) in experiment [1]; 3.12 µg/mL (≈ 5.59 µM) in experiment [2] (setting [11]); 3.12 µg/mL (≈ 5.59 µM) in [3] (ATCC12228, read-out: MIC MSSE).
On to `O=S(=O)(NC1CCN(CCC(Oc2ccc(C(F)(F)F)cc2)c2cccs2)CC1)c1ccccc1` (stereo not shown) [Compound 15], for which the MIC in [1] was determined as 6.25 µg/mL (≈ 11.9 µM); in experiment [2] (setting [12]) it was 12.5 µg/mL (≈ 23.8 µM); in experiment [3] (setting [13]), 12.5 µg/mL (≈ 23.8 µM).
Regarding `O=S(=O)(NC1CCN(CCC(Oc2ccc(C(F)(F)F)cc2)c2cccs2)CC1)c1ccccc1Cl` (stereo not shown) [Compound 16], the MIC in [1] turned out to be 6.25 µg/mL (≈ 11.2 µM); in experiment [2] (setting [12]) it was 50 µg/mL (≈ 89.4 µM); in experiment [3] (setting [13]) it was 50 µg/mL (≈ 89.4 µM).
As to `O=S(=O)(NC1CCN(CCC(Oc2ccc(C(F)(F)F)cc2)c2cccs2)CC1)c1cccc(F)c1` (stereo not shown) [Compound 17], the MIC in experiment [1] is 6.25 µg/mL (≈ 11.5 µM); in [2] (setting [11]), 6.25 µg/mL (≈ 11.5 µM); in [3] (setting [13]), 12.5 µg/mL (≈ 23 µM).
Turning to `Cc1cccc(S(=O)(=O)NC2CCN(CCC(Oc3ccc(C(F)(F)F)cc3)c3cccs3)CC2)c1` (stereo not shown) [Compound 19], the MIC amounted to 0.2 µg/mL (≈ 0.371 µM) in experiment [1], 50 µg/mL (≈ 92.8 µM) in experiment [2] (setting [12]) and 50 µg/mL (≈ 92.8 µM) in experiment [3] (setting [13]).
On to `COc1cccc(S(=O)(=O)NC2CCN(CCC(Oc3ccc(C(F)(F)F)cc3)c3cccs3)CC2)c1` (stereo not shown) [Compound 20], for which the MIC was 0.1 µg/mL (≈ 0.18 µM) in experiment [1], 25 µg/mL (≈ 45.1 µM) in experiment [2] (setting [12]) and 50 µg/mL (≈ 90.1 µM) in experiment [3] (setting [13]).
On the same counts, the results for `O=S(=O)(NC1CCN(CCC(Oc2ccc(C(F)(F)F)cc2)c2cccs2)CC1)c1ccc(F)cc1` (stereo not shown) [Compound 22] are 1.6 µg/mL (≈ 2.95 µM), 6.25 µg/mL (≈ 11.5 µM) and 6.25 µg/mL (≈ 11.5 µM).
With `O=S(=O)(NC1CCN(CCC(Oc2ccc(C(F)(F)F)cc2)c2cccs2)CC1)c1ccc(Cl)cc1` (stereo not shown) [Compound 23], the MIC in [1] was found to be 0.2 µg/mL (≈ 0.358 µM); in experiment [2] (setting [12]), 6.25 µg/mL (≈ 11.2 µM); in [3] (setting [13]), 12.5 µg/mL (≈ 22.4 µM).
As for `O=C(Nc1ccccc1)NC1CCN(CCC(Oc2ccc(C(F)(F)F)cc2)c2cccs2)CC1` (stereo not shown) [Compound 24], the MIC stood at 6.25 µg/mL (≈ 12.4 µM) in experiment [1]; 6.25 µg/mL (≈ 12.4 µM) in experiment [2] (setting [11]); 6.25 µg/mL (≈ 12.4 µM) in [3] (ATCC12228, read-out: MIC MSSE).
With `O=C(Nc1ccc(F)cc1)NC1CCN(CCC(Oc2ccc(C(F)(F)F)cc2)c2cccs2)CC1` (stereo not shown) [Compound 26], the results for the MIC in experiment [1] and in experiment [3] (setting [13]) were ≥ 6.25 µg/mL and 50 µg/mL (≈ 95.9 µM), respectively.
Taken in the same sequence, the figures for `O=C(Nc1ccc(Cl)cc1)NC1CCN(CCC(Oc2ccc(C(F)(F)F)cc2)c2cccs2)CC1` (stereo not shown) [Compound 27] were ≥ 6.25 µg/mL and 50 µg/mL (≈ 92.9 µM).
On to `O=S(=O)(NC1CCN(CCC(Oc2cccc(C(F)(F)F)c2)c2ccccc2)CC1)c1cccc(Cl)c1` (stereo not shown) [I], for which the MIC in [4] was 50 µg/mL (≈ 90.4 µM); in experiment [5], 50 µg/mL (≈ 90.4 µM); in experiment [6] it was 50 µg/mL (≈ 90.4 µM); in experiment [7] (tested Gram-negative bacteria), ≥ 25 µg/mL; in experiment [1], 3.12 µg/mL (≈ 5.65 µM); in experiment [2] (setting [11]) it was 3.12 µg/mL (≈ 5.65 µM). The MIC in experiment [3] (ATCC12228, read-out: MIC MSSE) is 3.12 µg/mL (≈ 5.65 µM); in experiment [8], 3.12 to 6.25 µg/mL (≈ 5.65 to 11.3 µM). In experiment [7], the “activity towards Gram-negative bacteria” value is given as “Not active”. Also, the “MIC MDR/BPSE” value in experiment [1] (Staphylococcus epidermidis ATCC 35984) was 6.25 µg/mL (≈ 11.3 µM).
For `COc1cccc2c1C(=O)c1c(O)c3c(c(O)c1C2=O)C[C@@](O)(C(=O)CO)C[C@@H]3O[C@H]1C[C@H](N)[C@H](O)[C@H](C)O1` [doxorubicin, reference compound], the IC50 in experiment [9] and in [10] was 0.39 µg/mL (≈ 0.718 µM) throughout.
